Measurements published in patent US10487044B2, “Gamma-aminobutyric acid hemihydrate crystal and preparation method thereof” (priority 2016, dated 2019).
Like-named read-outs stand apart in the source and are kept apart here.

How the values were obtained:
[1] = prior-art product, exposed to air; cited from earlier work
[2] = Particle size distribution by laser particle size analyzer; format: physicochemical; settings: hemihydrate
Description: The particle size distribution curves of the products in the embodiments of the present invention were all determined by Masterizer laser particle size analyzer from Malvern Panalytical (the U.K.).

Bulk density test = format: physicochemical
[3] = Moisture absorption and agglomeration; format: physicochemical
[4] = Flowability test (angle of repose); format: physicochemical
Experimental: Flowability test: The angle of repose is the maximum angle formed between the free slope of a piled powder and the horizontal plane. It is measured when the particles achieve a static state as they slide on the free slope of the piled powder and experience a balance of gravity and interparticle friction. It is the easiest way to examine the flowability of a powder. The smaller the angle of repose, the smaller the friction and the better the flowability.

| SMILES | moisture absorption and agglomeration [3] | bulk density (in words) (Bulk density test) | flowability (in words) [4] | also measured |
| --- | --- | --- | --- | --- |
| NCCCC(=O)O |  |  |  | hygroscopicity [1]: highly hygroscopic |
| NCCCC(=O)O [Embodiment 1, γ-aminobutyric acid hemihydrate] | did not easily absorb moisture and agglomerate |  |  | main particle size [2]: 110 μm; bulk density (Bulk density test; hemihydrate): 0.85 g/mL; angle of repose ([4]; hemihydrate): 38 ° |
| NCCCC(=O)O [Embodiment 2, γ-aminobutyric acid hemihydrate] | did not easily absorb moisture and agglomerate | high bulk density | good flowability |  |
| NCCCC(=O)O [Embodiment 3, γ-aminobutyric acid hemihydrate] | did not easily absorb moisture and agglomerate | high bulk density | good flowability |  |
| NCCCC(=O)O [Embodiment 4, γ-aminobutyric acid hemihydrate] | did not easily absorb moisture and agglomerate | high bulk density | good flowability |  |
| NCCCC(=O)O [Embodiment 5, γ-aminobutyric acid hemihydrate] | did not easily absorb moisture and agglomerate | high bulk density | good flowability |  |
| NCCCC(=O)O [Embodiment 6, γ-aminobutyric acid hemihydrate] | did not easily absorb moisture and agglomerate | high bulk density | good flowability |  |
| NCCCC(=O)O [crude λ-aminobutyric acid raw material, γ-aminobutyric acid, reference compound] |  |  |  | bulk density (Bulk density test): 0.65 g/mL; angle of repose [4]: 50 ° |
